Laboratory results as given in publication PMC8839939 (Polymers, 2022).

Tests used:
[1] = In-vivo pharmacokinetic study in mice; details: mouse, plasma
Description: In in-vivo study, the average mouse weight was 24 ± 5 g. Mice were acclimated for 7 days prior to the study and fasted for 24 h before the study. All in-vivo experiments were approved by the ethical committee, Faculty of Pharmacy, Gomal University (No: 10/ERB/GU). The mice were anesthetized under gas anesthesia (i.e., isoflurane in oxygen (2–4% (v/v))). Bulk hairs were removed with an electrical clipper and then a depilatory cream was applied to remove the remaining hair that could interfere with the insertion of LS-TC-MNP [41, 42]. Hairs were removed from the back area of mouse at 4 h prior to experiment. Mice were divided into two groups (n = 16 per group (total: 32)); oral (given the oral LS dispersion) and transdermal (LS-TC-MNP inserted in skin). Mice in the oral group received an oral LS dispersion of (200 mg/kg). The transdermal group was the LS-TC-MNP treatment group, in which each mouse was treated with (LS = 25 mg) LS-TC-MNP. To facilitate the insertion of LS-TC-MNP, the mice were anesthetized by gas anesthesia. The mice skin was pinched, and LS-TC-MNP attached to self-adhesive margins was inserted with firm finger pressure onto the back of each mouse. Blood samples were withdrawn by bleeding the tail vein at predetermined time intervals. The study plan was 16 mice per group and a maximum of (n = 3) blood samples was withdrawn from each mouse. Each mouse was bled twice a day. After 1 and 4 h, blood was withdrawn from the first 4 mice; the next 4 mice were bled after 2 and 6 h; the next four mice at 8 and 24 h; the remaining 4 mice at 12 h; and all mice (n = 16) at 48 h. The area under the curve and other pharmacokinetic parameters were measured by using Pk solver software (Microsoft Excel add-in programm).

[2] = cited from earlier work

concentration at 1 h ([1]; 1 h, patch LS = 25 mg transdermal or oral dispersion 200 mg/kg): 500 ± 1940 ng/mL
concentration at 2 h ([1]; 2 h, oral dispersion 200 mg/kg, read-out: LS plasma concentration): 200 ng/mL
concentration at 4 h ([1]; 4 h, oral dispersion 200 mg/kg, read-out: LS plasma concentration): 180 ng/mL
concentration at 6 h ([1]; 6 h, patch LS = 25 mg transdermal or oral dispersion 200 mg/kg): 400 ± 1370 ng/mL
Compound: CCN1CCC[C@H]1CNC(=O)c1cc(S(N)(=O)=O)ccc1OC [Levosulpiride, 5-(amino-sulfonyl)-N-[(1-ethyl-2-pyrrolidinyl)methyl]-2-methoxy benzamide]
intravenous dose excreted unchanged in the urine ([2]; intravenous ref 6): 70–90%
half-life ([2]; oral ref 4): about 6 h
oral bioavailability ([2]; oral ref 4): less than 25%
oral dose excreted unchanged in the urine ([2]; oral ref 6): 15–25%
